Experiments:
[1] = test system: U87 shCTRL cells; test: Mitotic index by high-content imaging, U87 shCTRL; assay type: cell-based, human; conditions: 48 h, 5-times IC50 of compounds
Description: For scoring mitotic indexes, an automated high-content screening confocal microscopy approach was employed to identify cells undergoing mitosis from a large population of cells. For this, cells nuclei were stained with DAPI. Briefly, fibronectin-coated clear-glass-bottom black 96-well imaging plates were seeded with 100 µL of cell suspension (60,000 cell.mL^−1) in each well, with both U87 shCTRL and U87 ShTau cell lines. Cells were treated with 5-times IC50 of compounds for 48 h, then they were fixated inside the palates with 4% formaldehyde (in PBS pH 7.4) for 20 min at room temperature, permeabilized with PBS-Triton X-100 0.5% for 10 min at room temperature. DNA was then stained with DAPI (10 µg.mL^−1) for 5 min at room temperature and in the darkness. After being washed, cells were kept in PBS at 4 °C and imaged while in PBS. Automated confocal microscopy was carried out using an Opera Phenix (PerkinElmer) high-content screening microscope using a 20× Air/0.4 NA air objective. For each condition, 6 wells were prepared and a total of 61 fields were acquired for each well. Image analysis was performed using Harmony high-content analysis v4.8 software and PhenoLOGIC Machine Learning technology, which uses a learn-by-example approach. As a first step, nuclei were segmented and multiple parameters for these nuclei were calculated using Harmony v4.8 software building blocks. After training, PhenoLOGIC Machine Learning then selects the best parameters to detect nuclei undergoing the M phase of mitosis. From this, the mitotic index of each condition was calculated by dividing the number of cells undergoing mitosis over the total number of cells.

[2] = test system: U251 glioblastoma cells; test: MTT cell viability assay, U251; assay type: cell-based; conditions: Homo sapiens, U-251, U251, 72 h, mean ± SEM, read-out: IC50 (metabolic activity)
Description: (§1) Cells harvested from sub-confluent monolayers were seeded at 15,000 cells per mL in a 96-well microtiter plate (Cambridge Technology, Labège, France) and cultured for 24 h under standard conditions. Standard medium was then replaced by fresh medium containing no drugs or compounds at different concentrations. The surviving cells were quantified after 72 h by the MTT assay, according to the manufacturer’s instructions. Briefly, 20 µL of 3-(4,5-diMethylThiazol-2-yl)-2,5diphenyl Tetrazolium bromide (MTT) solution at 5 mg.mL^−1 was added to cells for 3 h at 37 °C. The supernatant was discarded and replaced by 100 µL of dimethyl sulfoxide to dissolve formazan crystals. The absorbance was then read at 600 nm by spectrophotometry. For all concentrations of a given compound, cell viability was expressed as the percentage of the ratio between the mean absorbance of treated cells and the mean absorbance of untreated cells. Three independent experiments were performed, and the data were expressed as percentage of survival (using the untreated cells as 100%) and subjected to statistical analysis (n = 3). The IC50 was calculated using the Chou and Talalay method.

[3] = target: T1, mature Tau aggregates (Homo sapiens, UniProt P10636); test: Dissolution of preformed (mature) Tau aggregates, ThS fluorescence; assay type: biochemical; conditions: 10, 30 and 100 µM added to ThS-labelled aggregates after 8 h, 37 °C
T1 construct: The full-length human Tau (hTau40) was expressed in a transformed E. coli BL21 (DE3) strain; made in house; host or cells: E. coli BL21 (DE3)
Description: Moreover, we performed a qualitative study of the ability of QCT and compounds 1, 5, and 9 to dissolve preformed Tau aggregates (Figure 3).
Eight-hour time courses were performed with ThS to monitor heparin-induced Tau aggregation by spectrofluorometry at 520 nm (37 °C), then 10, 30, and 100 µM of compounds (curves b–d) were added to the ThS-labelled Tau aggregates. A control was performed without compound (curve a).

[4] = test system: Caco-2 colon adenocarcinoma cells; test: MTT cell viability assay, Caco-2; assay type: cell-based; conditions: Homo sapiens, Caco-2 (not expressing Tau), 72 h, mean ± SEM, read-out: IC50 (metabolic activity)
Description: as §1

T1 sequence (P10636 1-441 isoform P10636-8): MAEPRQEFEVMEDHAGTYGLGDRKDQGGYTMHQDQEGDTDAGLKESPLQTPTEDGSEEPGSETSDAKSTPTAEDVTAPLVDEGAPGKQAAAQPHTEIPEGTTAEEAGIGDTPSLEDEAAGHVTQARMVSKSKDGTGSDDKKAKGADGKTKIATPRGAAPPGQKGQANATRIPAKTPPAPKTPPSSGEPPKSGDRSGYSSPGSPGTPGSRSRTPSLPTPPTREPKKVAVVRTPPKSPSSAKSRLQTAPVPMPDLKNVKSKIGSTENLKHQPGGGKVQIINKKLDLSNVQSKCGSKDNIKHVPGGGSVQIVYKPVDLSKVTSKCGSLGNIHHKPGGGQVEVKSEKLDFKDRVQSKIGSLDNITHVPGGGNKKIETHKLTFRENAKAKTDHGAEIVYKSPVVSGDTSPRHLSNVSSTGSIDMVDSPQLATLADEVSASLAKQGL

| Compound | mitotic index [1] | IC50 [2] [µM] | Ability to dissolve mature (preformed) Tau aggregates [3] | IC50 [4] [µM] |
| --- | --- | --- | --- | --- |
| Nc1nc2ccc3oc(-c4cccc(Oc5ccccc5)c4)cc(=O)c3c2s1 [Compound 2, 2-amino-7-(3-phenoxyphenyl)-9H-chromeno [6,5-d]thiazol-9-one] | no significant variation of mitotic indexes | 1.7 ± 0.5 | able to dissolve mature Tau aggregates | > 100 |
| Nc1nc2ccc3oc(C(=O)O)cc(=O)c3c2s1 [Compound 5] | 2.47 ± 0.19% | > 100 | no significant change of ThS fluorescence intensity | > 100 |
